# Reference: US20240408053A1, “ENTERITIS-SUPPRESSING COMPOSITION” (KOBE GAKUIN EDUCATIONAL FOUNDATION, priority 2021, published 2024)
# Tests used:
# Type in all cases: in vivo, mice
# [1] = test system: ethanol-induced lesion in mouse colon; experiment: Microscopic evaluation of ethanol-induced lesion in mouse colon (HE, TB, MUC2 staining), 2 weeks
# [2] = test system: 8-OHdG; experiment: 8-OHdG level in colon tissue (immunohistochemical staining, ELISA); settings: group ES: 2.0% v/v ethanol diet + 2.5 mg sesaminol per day oral, 2 weeks, group E highest
# From the text: The present inventors have previously reported that chronic oral administration of ethanol to mice increases oxidative stress in colon tissue (NPL 13). Therefore, in order to verify the effect of oral administration of sesaminol on oxidative stress in the colon induced by chronic oral consumption of ethanol, the levels of oxidative stress markers (8-hydroxy-2′-deoxyguanosine (8-OHdG), malondialdehyde (MDA), and 4-hydroxyalkenals (HAE)) were examined in colon tissue of the mice in groups C, S, E, and ES.
# The level of 8-OHdG, which is an oxidative stress marker in tissue, was examined by immunohistochemical staining and ELISA.
# Immunostained tissue specimens were prepared in the same manner as the method described above, except that the primary antibody was rabbit anti-8-OHdG monocolonal antibody.
# A colon tissue sample (50 mg) was homogenized in 1 mL of DNAzol reagent, and the resulting homogenate was centrifuged at 20,000× g at 4° C. for […]. DNA was then isolated from the supernatant by ethanol precipitation and treated with an 8-OHdG assay preparation reagent set (FUJIFILM Wako Pure Chemical
# Corporation). Equal amounts of the extracted DNA were used for analysis of the 8-OHdG level using an OxiSelect oxidative DNA damage ELISA kit (Cell Biolabs, Inc.).
# [3] = test system: CYP2E1; experiment: Western blotting of CYP2E1 in colon tissue; settings: group ES: 2.0% v/v ethanol diet + 2.5 mg sesaminol per day oral, 2 weeks, vs group E
# From the text: Chronic consumption of an excessive amount of ethanol has been reported to increase CYP2E1 and iNOS levels and cause ethanol-induced oxidative stress in the liver and other tissues. The nuclear factor erythroid 2-related factor 2/heme oxygenase-1 (Nrf2/HO-1) system has also been reported to be widely involved in the protection of cells from oxidative damage. Therefore, the expression levels of these proteins (CYP2E1, iNOS, and HO-1) in mouse colon tissue in the four groups (groups C, S, E, and ES) were examined by western blotting (WB).
# A colon tissue sample (100 mg) was homogenized in 1 mL of an M-PER mammalian protein extraction reagent (Pierce) containing a diluent of a protease inhibitor cocktail (Nacalai Tesque, Inc.), and the resulting homogenate was centrifuged at 20,000× g at 4° C. for 15 minutes. The protein concentration of the supernatant was measured with a protein assay reagent (Bio-Rad Laboratories, Inc.), and equal amounts of proteins were subjected to SDS-PAGE. Electrophoresed proteins in the gel were transferred to a PVDF membrane, and the membrane was immersed in a blocking reagent (room temperature, overnight). The primary antibody (rabbit polyclonal antibody) was then reacted. […] The band intensities were quantified with ImageJ.
# [4] = test system: TNF-α; experiment: TNF-α expression in colon tissue (qRT-PCR, ELISA); settings: group ES: 2.0% v/v ethanol diet + 2.5 mg sesaminol per day oral, 2 weeks, vs group E; higher than group C
# From the text: It has been reported that chronic consumption of an excessive amount of ethanol can induce inflammation associated with tumor formation in colon tissue. Therefore, in order to verify whether oral administration of sesaminol has a preventive effect on ethanol-induced colitis, the expression levels of inflammatory cytokines (TNF-α and IL-6) and chemokine (MCP-1) in the large intestinal lamina propria of the mice in the four groups (groups C, S, E, and ES) were examined by qRT-PCR and ELISA. The NF-κB activity in the mice in the four groups was also examined. NF-κB is a transcription factor that is involved in expression of genes regulating inflammation and is activated by exposure of immune cells to pro-inflammatory factors.
# Total RNA was extracted from colon tissue samples. […]
# A colon tissue sample (100 mg) was homogenized in 1 mL of an M-PER mammalian protein extraction reagent (Pierce) containing a diluent of a protease inhibitor cocktail (Nacalai Tesque, Inc.), and the resulting homogenate was centrifuged at 20,000× g at 4° C. for 15 minutes. The protein concentration of the supernatant was measured with a protein assay reagent (Bio-Rad Laboratories, Inc.), and equal amounts of proteins were used for analysis of the expression levels of TNF-α, IL-6, and MCP-1 by ELISA.
# [5] = test system: ZO-1; experiment: Western blotting of ZO-1 in colon tissue; settings: group ES: 2.0% v/v ethanol diet + 2.5 mg sesaminol per day oral, 2 weeks, vs group E; lower than group C
# From the text: (§1) Acetaldehyde, which accumulates during ethanol metabolism, is known to disrupt intestinal tight junctions (TJs) via dissociation of colonic epithelium TJ proteins (ZO-1, occludin, and claudin-1) from the cytoskeleton. […] Therefore, whether oral administration of sesaminol would affect ethanol-induced intestinal barrier dysfunction was examined by analyzing the expression levels of colonic epithelial TJ proteins and the plasma LPS level in the mice in the four groups (groups C, S, E, and ES).
# (§2) WB was performed in the same manner as in Example 4 above. The following primary antibodies were used. • Anti-mouse zonula occludens-1 protein (ZO-1) rabbit polyclonal antibody • Anti-mouse occludin rabbit polyclonal antibody • Anti-mouse claudin-1 rabbit polyclonal antibody
# [6] = test system: occludin; experiment: Western blotting of occludin in colon tissue; settings: group ES: 2.0% v/v ethanol diet + 2.5 mg sesaminol per day oral, 2 weeks, vs group E; lower than group C
# From the text: as §1, §2
# [7] = Body weight and percentage of liver weight relative to body weight, 4 weeks; settings: mean ±SD
# From the text: The liver function and plasma lipid level in the mice in each group were examined by measuring the percentage of the liver weight relative to the body weight, the triglyceride (TG) concentration in the liver, the aspartate aminotransferase (AST) activity in the plasma, the alanine aminotransferase (ALT) activity in the plasma, and the TG concentration in the plasma of the mice in each group.
# The body weight of mice fed for 4 weeks were weighed and dissected under anesthesia. The liver was removed and weighed. The weight ratio between the body weight and the liver of each individual was evaluated.
# [8] = group ES: 2.0% v/v ethanol diet + 2.5 mg sesaminol per day oral, vs group E
# [9] = EtOH (2.0% v/v) + Sesaminol group ES
structure (smiles),measurement,setting,value
Oc1cc2c(cc1C1OCC3C(c4ccc5c(c4)OCO5)OCC13)OCO2 (stereo not drawn) [Sesaminol],degree of lesion in colonic epithelium,[1]; [8],smaller degree of lesion compared with that observed in group E
same,microscopic lesion score of colon tissue,[1]; [8],significantly lower than that of group E
same,lesions in colonic epithelium,"[1]; group S: 2.5 mg sesaminol per day oral, no ethanol",No obvious lesions
same,8-OHdG level in colon tissue,[2],next highest level
same,CYP2E1 expression level,[3],significantly lower than that in group E
same,"expression level of TNF-α (mRNA by qRT-PCR, protein by ELISA)",[4],significantly lower than those in group E
same,expression level of ZO-1,[5],significantly higher than those in group E
same,expression level of occludin,[6],significantly higher than those in group E
same,Body weight,[7]; [9],25.4 ± 1.0 g
same,Liver/body weight ratio,[7]; [9],"4.04 ± 0.41 g/g, %"
same,Body weight,[7]; Sesaminol (2.5 mg/d) group S,25.9 ± 0.8 g
same,Liver/body weight ratio,[7]; Sesaminol (2.5 mg/d) group S,"3.96 ± 0.55 g/g, %"
